Results from patent US20250059139A1, “COMPOUNDS FOR TREATMENT OF CANCER” (THE JOHNS HOPKINS UNIVERSITY, priority 2021, published 2025).
Where two headings read alike, the source gives them in different places.

Columns and labels:
LNCaP cells = assay: In vitro growth of LNCaP cells; assay type: cell-based, human; settings: for LNCaP growth when combined with 3 nM docetaxel: 10 μM compound + 3 nM docetaxel
Source text: (§1) Prostate Cancer Models. The source, history, and characteristics of the human prostate cancer cell lines and PDXs used, as well as cell culture conditions for their in vitro maintenance and the in vivo protocol for xenograft growth in triple immune-deficient NSG (i.e. NOD.Cg-PrkdcScidIl2rgtmlWji/Szj), adult (>8 week old) male mice obtained from the Sidney Kimmel Comprehensive Cancer Center (SKCCC) Animal Core Facility are described previously (Isaacs 2013; Brennen et al. JCI Insight. 2021, 6(8):e146827; Zhu et al. Oncogene 2020, 39(45): 6935-6949). Similar information concerning the TRAMP-C2 and B6CaP mouse prostate cancers originating in a C57BL/6J male mice are described previously (Foster et al. Cancer Res. 1997, 57: 3325-3330; Simons et al. Oncotarget. 2019, 10(64):6845-6854). In vitro growth curves were determined as described (Isaacs 2013). In vivo growth response to oral daily TasQ (10 mg/kg/d) of TRAMP-C2 mouse prostate cancers was evaluated in C57BL/6J syngeneic wild type vs. NOX-2 vs. iNOS null male mice obtained from Jackson Laboratory (Bar Harbor, ME). Growth response to oral daily TasQ (10 mg/kg/d) of TRAMP-C2 and B6CaP mouse prostate cancers was also evaluated in S100A9 null C57BL′6J male mice obtained from Dmitry Gabrilovich (Wistar Institute). All lines were mycoplasma negative using the MycoSensor PCR Assay kit (Agilent Technologies) and genetically authenticated within the last 6 months using short tandem repeat profiling conducted by the Johns Hopkins Genetic Resource Core Facility. In vitro growth curves were determined as described (Isaacs 2013). Growth response to daily oral TasQ vs. ESATA-20 (both at 10 mg/kg/d) of Myc-CaP-CR mouse prostate cancer was evaluated in syngeneic FVB/NJ castrate male mice from Jackson Laboratory. Animal studies were conducted according to animal protocols approved by Johns Hopkins Animal Care and Use Committee. Tumor volume measurements were as described previously (id.). In vivo experiments were repeated multiple independent times for each model used with 3-5 mice per treatment grouping.
Similarly, under such optimal conditions, knocking down HDAC4 expression by 50% with shRNA only decreases the growth of LNCaP cells by <25%, which is equivalent to the inhibition by TasQ at 10 μM (FIG. 22). […] In contrast to normoxic in vitro conditions, cancers outgrow their blood supply in vivo, producing a TME that is hypoxic, nutrient-limited, and acidic (low pH). For example, when prostate cancer xenografts growing subcutaneously reach a size of ˜0.2-0.3 cc, the TME is already hypoxic with a pO2 of 3.6+/−1.5 mmHg compared to 37.5+/−8.6 mmHg in normal tissue (Dalrymple et al. Prostate 72, 638-648 (2012)). […]

[1] = tested on: HIF-1α protein in LNCaP cells; assay: Nuclear HIF-1α protein level in LNCaP cells (immunoblot); assay type: cell-based, human; settings: LNCaP cells in vitro, read-out: IC50 for decreasing nuclear HIF-1α protein
Experimental: Western Blot Analysis. Analysis and quantification of protein expression via immunoblot was performed as previously described (Brennen 2021). All assays were performed with total cell lysates from an equal number (i.e., 100,000) of cells loaded per lane for accurate comparisons across cell lines and conditions.
[…] is an HDAC4 client (see, e.g., Isaacs 2013) binding between AA 603-788 in its inhibitory domain to HDAC4 (Seo et al. FEBS Lett 583, 55-604 (2009)). As a client, the HDAC4/NCoR1/HDAC3 complex deacetylates the N-terminal lysines, which stabilizes and thus activates HIF-1α as a transcription factor (see, e.g., Isaacs 2013). In LNCaP cells under normoxic conditions, HIF-1α protein is low, cytoplasmic, and mostly unphosphorylated; while under hypoxic conditions, it is increased, nuclear, and phosphorylated (i.e., slower migrating band on western blot) (see, e.g., Isaacs 2013) (FIG. 30). HDAC4 KD in LNCaP prostate cancer cells prevents deacetylation-dependent stabilization, resulting in a reduction of nuclear HIF-1α protein (FIG. 31). […] The causal importance of decreased HIF-1α protein for in vivo growth was evaluated by knocking down HIF-1α protein expression in LNCaP cells (FIG. 31), and assessing xenograft growth.

[2] = tested on: CWR22-RH human prostate cancer PDXs; assay: In vivo growth of CWR22-RH xenografts in castrate NSG male mice; settings: for CWR22-RH Tumor Growth (% inhibition +/− SD): castrate mice treated orally over a 3 week period, n = 5/group
Source text: as §1
Oral Drug treatment. TasQ at the indicated dose was initially dissolved with equal molar 1 N sodium hydroxide. This solution was diluted with sterile water and the mixture stirred for 1 hr. The pH was then adjusted with 1 N HCl to 8.9 and 200 μL given daily via oral gavage.
Due to these combined effects, maximal growth inhibition of CWR22-RH, a castration-resistant prostate cancer patient-derived xenograft (PDX), is obtained as maintenance therapy with oral daily dosing of ≥5 mg/kg/d (FIG. 1). […] Previous studies documented that in vitro treatment of human prostate cancer cells (LNCaP) with 1-10 μM TasQ rapidly (i.e., ≤1 day) induces the transcription of a series of AHR target genes (e.g., Cyp1a1, Cyp1b1, AHRR, TPARP, GDF15) (Olsson 2010). […]

liver Cyp1a1 = assay: Mouse liver Cyp1a1 induction after oral dosing (Q-PCR); assay type: in vivo
Source text: Real-time quantitative PCR (Q-PCR) analysis. […] ID NO: 2) and […] ID NO: 3). […] ID NO: 4) and […] ID NO: 5).

Compound	LNCaP growth when combined with 3 nM docetaxel (LNCaP cells)	inhibition at 10 µM (LNCaP cells; Homo sapiens, LNCaP, 10 μM, normoxic)	IC50 [1]	CWR22-RH Tumor Growth (% inhibition +/− SD) ([2]; 10 mg/kg/d)	plasma concentration required to maximally inhibit in vivo prostate cancer xenograft growth ([2]; combined xenograft and PK results)	oral daily dose giving maximal growth inhibition ([2]; maintenance therapy, CWR22-RH PDX)	induction of liver Cyp1a1 (liver Cyp1a1; daily oral 10 mg/kg, alone and in combination with B(a)P)	IC50 (LNCaP cells; Homo sapiens, LNCaP line)	IC50 ([1]; Homo sapiens)	anti-cancer efficacy compared with TasQ ([2]; 10 mg/kg/d)	fold more potent than TasQ in inhibiting CWR22-RH xenograft growth ([2]; on a molar basis)	induction of liver Cyp1a1 (liver Cyp1a1; given orally at 30 mg/kg/d)
COc1cccc2c1c(O)c(C(=O)N(C)c1ccc(C(F)(F)F)cc1)c(=O)n2C [TasQ, Tasquinimod]	does not occur	< 25%	2.5 µM	87 +/− 11%	> 2 µM	≥ 5 mg/kg/day	> 50 fold					
COc1cccc2c1c(O)c(C(=O)N(c1ccc(C(F)(F)F)cc1)C1CCCCC1)c(=O)n2C [ESATA-20]	completely inhibited			80 +/− 15%				> 10 µM	1 µM	same maximal anti-cancer efficacy as TasQ	at least 5 fold	lack of induction
